Patent US11230534B2, “KDM1A inhibitors for the treatment of disease” (Imago Biosciences, Inc., priority 2015, dated 2022)

Assays:
Assay type in all cases: physicochemical
[1] = Storage at elevated temperature and humidity (40° C./75% RH, 25° C./95-97% RH; XRPD, HPLC); conditions: for change of form under temperature and humidity conditions: conclusion; for Storage at 40° C. and 75% RH and 25° C. and 95% RH / exposure to humidity (form, purity): scaled-up salts
Experimental: Example 1 was dissolved in solvent (240 mg in 2.4 mL, 10 volumes) to form stock solutions and then dispensed into vials (400 μL/˜40 mg per vial). The solutions were treated with 1 equivalent of counterions (for hydrochloric acid (HCl), sulfuric acid (H2SO4 or “SO4”), methanesulfonic acid (mesylate or “MSA”), phosphoric acid (H3PO4 or “PHOA”), and L-tartaric acid (TAR), 77 μL for 1M; for fumaric acid (FUA), 154 μL for 0.5M) using stock solutions. The solutions/suspensions were then cooled down to 0° C. at 0.2° C./min and stirred at 0° C. overnight. The resulting solids were analyzed by XRPD and those that were amorphous or poorly crystalline were then matured for 5 days. If after cooling to 0° C. a clear solution or gum was obtained, the mother liquors were removed from the vials, split in two and anti-solvent (MTBE or heptane, 400 μl) added to each of the aliquots. After anti-solvent addition, the samples were matured for 5 days. After maturation, clear solutions and gums were allowed to evaporate at ambient conditions. Suspensions were filtered, air-dried and characterized by XRPD. Any resulting crystalline solids were characterized by high resolution XRPD, 1H NMR, HPLC and one week storage at 40° C. and 75% RH.
Example 1 was dissolved in methyethyl ketone (MEK) or acetonitrile (MeCN) (20 mg in 200 μl, 10 vol) at ambient conditions. The solutions were then heated to 50° C., treated with 1.1 or 2.1 eq of acid and stirred at this temperature for 1 hour. The resulting solutions/suspensions were then cooled down to 5° C. at 0.1° C./min and held overnight. Any solids obtained were analyzed by XRPD and those that were amorphous or poorly crystalline were then matured between 50° C./ambient on an 8-hour cycle. Any clear solutions were left to evaporate slowly at ambient conditions. If the samples evaporated to form gums, these were dissolved in IPA (10 vol, 200 μL) and then matured. Any solutions with gums present were also matured between 50° C./ambient on an 8 hour cycle. Any resulting crystalline solids were characterized by high resolution XRPD, NMR, HPLC, IC (for inorganic counter-ions) and one week storage at 40° C. and 75% RH.
In the first experiment, Example 1 was dissolved in MEK or MeCN (100 mg in 1 mL, 10 vol) at ambient conditions. The solutions were then heated to 50° C., treated with 2.1 eq of p-toluene sulfonic acid monohydrate (1M in THF, 405 μL) and stirred constant temperature for 1 hour. The resulting suspensions were then cooled down to 5° C. at 0.1° C./min overnight. Any solids obtained were analyzed by XRPD and those that were amorphous or weakly crystalline were then matured between 50° C./ambient on an 8-hour cycle for 7 days. Any resulting crystalline solids were characterized by high resolution XRPD, ^1H NMR, HPLC, TGA, DSC and one week storage at 40° C. and 75% RH. […] However, after further maturation to try and improve the crystallinity, both tosylate salts were consistent with pTSA Form 2 by XRPD. […]
(§1) A preliminary polymorphism assessment was carried out on the three most crystalline salt forms, the mono tartrate (TAR Form 1), mono oxalate (OXA Form 1), and bis tosylate (pTSA Form 2). Each salt was treated with the relevant solvent (10 vol, 30 mg in 300 μL) at 25° C. The samples were stirred for 10 minutes and then heated to 50° C. for 1 hour. The resulting suspensions were matured for 24 hours and any resulting solutions were allowed to evaporate slowly. After maturation or evaporation, the solids were filtered and air-dried before analysis by XRPD.
Amorphous bis tosylate was suspended in the solvent system below (30 mg in 150 μl) at ambient conditions. The suspensions were shaken in the maturation chamber between ambient and 50° C. for 19 h (8 h cycles), then allowed to stand at ambient conditions for 10 min. An aliquot of the solid was air dried and analyzed by XRPD and then placed for 1 week at 40° C./75% RH and re-analyzed. […]

[2] = Gravimetric Vapour Sorption (GVS); conditions: for hygroscopicity: conclusion; for GVS water uptake: full cycle, 25° C.
Experimental: Sorption isotherms were obtained using a SMS DVS Intrinsic moisture sorption analyzer, controlled by DVS Intrinsic Control software v1.0.1.2 (or v 1.0.1.3). The sample temperature was maintained at 25° C. by the instrument controls. The humidity was controlled by mixing streams of dry and wet nitrogen, with a total flow rate of 200 mL/min The relative humidity was measured by a calibrated Rotronic probe (dynamic range of 1.0-100% RH), located near the sample. The weight change, (mass relaxation) of the sample as a function of % RH was constantly monitored by the microbalance (accuracy ±0.005 mg).
Typically 5-20 mg of sample was placed in a tared mesh stainless steel basket under ambient conditions. The sample was loaded and unloaded at 40% RH and 25° C. (typical room conditions). A moisture sorption isotherm was performed as outlined below (2 scans giving 1 complete cycle). The standard isotherm was performed at 25° C. at 10% RH intervals over a 0-90% RH range. Data analysis was carried out using Microsoft Excel using DVS Analysis Suite v6.2 (or 6.1 or 6.0).

[3] = Polymorphism assessment (slurry, maturation, evaporation; XRPD); conditions: 10 solvents, maturation 24 hours
Experimental: as §1
Amorphous bis tosylate was suspended in the solvent system below (30 mg in 150 μl) at ambient conditions. The suspensions were shaken in the maturation chamber between ambient and 50° C. for 19 h (8 h cycles), then allowed to stand at ambient conditions for 10 min. An aliquot of the solid was air dried and analyzed by XRPD and then placed for 1 week at 40° C./75% RH and re-analyzed. If solutions were recovered, the solvents were allowed to evaporate at ambient conditions and the residues were initially analyzed by XRPD.
(8 h cycles). After 4 days the solids were filtered and air dried. Solids obtained were initially analyzed by XRPD. Maturation in n-heptane, diethyl ether, ethyl acetate, isopropyl acetate, methylisobutyl ketone, 2-propanol, methylethyl ketone, acetone, tert-butylmethyl ether, cyclohexane, 1,4-dioxane, toluene, chloroform, 1,2-dimethoxyethane, tetrahydrofuran, acetonitrile, nitromethane, and 2-propanol:water 95:5 yielded filtered solids of Form 2.
Supernatants from the maturation experiments and solutions from cooling were allowed to slowly evaporate at ambient conditions. The residues were analyzed by XRPD. Slow evaporation from the following supernatants yielded: dimethyl sulfoxide, oil; water, oil; N,N-dimethylformamide, gum; N-methylpyrrolidone, oil; tetrahydrofuran:water 95:5, gum; and acetone:water 95:5 gum. Solutions obtained after the solubility assessment were placed in a fridge (4° C.) for 2 days and in a freezer (−20° C.) for another 2 days. No solids were recovered. […]

[4] = Variable temperature XRPD (VT-XRPD)
Experimental: Samples run under ambient conditions were prepared as flat plate specimens using powder as received without grinding. Approximately 1-2 mg of the sample was lightly pressed on a glass slide to obtain a flat surface. Samples run under non-ambient conditions were mounted on a silicon wafer with heat-conducting compound. The sample was then heated to the appropriate temperature at 20° C./min and subsequently held isothermally for 1 minute before data collection was initiated.

[5] = Chemical stability by HPLC purity re-test / degradation; conditions: for Initial Purity: HPLC 1-24 hours post-synthesis
Experimental: Various lots of Example 1 were analyzed by HPLC shortly after synthesis (analysis from 1-24 hours post-synthesis) and re-tested for purity a unit of time later.
Purity analysis was performed on an Agilent HP1100 series system equipped with a diode array detector and using ChemStation software vB.04.03 using one of the methods detailed below: […]

Row | Molecule | loss in purity on storage ([1]; 40° C. and 75% RH) [%] | change of form under temperature and humidity conditions [1] | Storage at 40° C. and 75% RH (form by XRPD) ([1]; one week) | Storage at 40° C. and 75% RH and 25° C. and 95% RH / exposure to humidity (form, purity) [1] | form by XRPD post GVS [2] | hygroscopicity [2] | GVS water uptake [2] [% w/w] | change in crystalline form in polymorphism assessment [3] | chemical stability relative to free form ([1]; limited stability studies) | temperature up to which crystalline form is unchanged (VT-XRPD) [4] [°C] | behaviour of free base form at high humidity ([1]; high humidity) | Re-Test Purity ([5]; Lot 1, free base, 49 days between tests) [%] | Initial Purity ([5]; Lot 1, free base) [%] | Re-Test Purity ([5]; Lot 2, free base, 16 days between tests) [%] | Initial Purity ([5]; Lot 2, free base) [%] | stability of free base form ([5]; ambient conditions)
1 | O=C(O)C(O)C(O)C(=O)O (stereo not drawn) [tartrate] | > 30 | change under both temperature and humidity conditions | no change in form was observed | changes in crystallinity and form | decreased crystallinity and a change in form | highly hygroscopic | ~30 | five of the tartrate samples changed in form | – | – | – | – | – | – | – | –
2 | tosylate | – | – | – | no changes in the form or purity | No change in form was observed | – | ~5 | no change in crystalline form was noted in 9 | improved chemical stability over the free form | 170 | – | – | – | – | – | –
3 | oxalate | – | changed form under humidity, but not temperature conditions | – | changed the form of the material to OXA Form 2 | change in form to OXA Form 2 | hygroscopic | ~12 | only one change in form was observed | – | 140 | – | – | – | – | – | –
4 | CN1CCN(C(=O)C(CN[C@@H]2C[C@H]2c2ccc(F)cc2)NC(=O)c2ccc(-n3ccnn3)cc2)CC1 (stereo partly drawn) [Example 1, N-[3-[[(1R,2S)-2-(4-Fluorophenyl)cyclopropyl]amino]-1-(4-methylpiperazin-1-yl)-1-oxopropan-2-yl]-4-(1H-1,2,3-triazol-1-yl)benzamide] | – | – | – | – | – | – | – | – | – | – | deliquesces when subjected to high humidity | 82 | 93 | 72 | 81 | degrades at ambient conditions over time
